The values that follow come from PMC6823370, “A novel nucleoside rescue metabolic pathway may be responsible for therapeutic effect of orally administered cordycepin” (Scientific Reports, 2019).

Structures are written as SMILES. Where only a bound is given, the exact number is not on record here.

Data set [1] in a line: Plasma stability of cordycepin in human plasma. The data set is classed as in vitro ADME. The following applies: read-out: ex vivo stability half-life (t1/2) in plasma. Here is the method: Stability of cordycepin in plasma was tested using human and rat plasma by following a previously reported method with minor modifications. Cordycepin was spiked into the plasma at 10 µM and the samples were incubated in a shaking incubator (Thermo Scientific MaxQ4000, Waltham, MA, USA) at 37 °C and shaken at 250 rpm. Samples (100 µL) were withdrawn at predetermined time points. […] The experiments were performed in triplicates.
Samples from studies of plasma stability, protein binding, biorelevant solubility and liver microsomal stability were subjected to liquid-liquid extraction and HPLC-UV analysis. To 100 µL of sample, internal standard (2′-deoxyadenosine) was spiked at 10 µg/mL and 300 µL of 0.1 M NaOH was added. Extraction solvent (3 mL) of ethyl acetate-isopropyl alcohol (85:15, v/v) was added and vortex-mixed for 10 min. Samples were then centrifuged at 1160 g for 5 min and the supernatant was transferred and dried under N2 gas. Dried samples were reconstituted with 100 uL of deionised distilled water (DDW) and 40 µL was injected into the HPLC-UV. The HPLC-UV setup was adopted from a validated method[22] with addition of a gradient scheme to elute the impurities from samples. Waters Alliance 2695 module with Waters 996 PDA detector was used for the HPLC-UV system with Capcell Pak C18 3 µm, 4.6 × 150 mm as the stationary phase. […]

Data set [2] can be described thus: Plasma protein binding, ultrafiltration, human plasma. The data set is classed as in vitro ADME. The following applies: read-out: fraction unbound (Fub) in plasma. Here is the method:
Cordycepin was spiked into the plasma to give concentrations of 100, 500, 1000 and 5000 ng/mL, and the samples (300 µL) were incubated in the shaking incubator at 250 rpm and 37 °C for 1 h. Following incubation, 100 µL was withdrawn and analysed for Ct. The remaining sample was transferred to a filter device (Amicon Ultra-0.5 Centrifugal Filter Units, MWCO 3000, Merck Millipore, Cork, Ireland) and was centrifuged at 14,000 g for 10 min at room temperature. Filtrate was collected and analysed for Cf. The fraction unbound in plasma (Fub) was calculated by the equation: Cf/Ct × 100 = Fub. Non-specific binding of cordycepin to the filter device was tested at the same concentration range using phosphate buffered saline (PBS) instead of plasma. Experiments were conducted in quadruplicates.
Samples from studies of plasma stability, protein binding, biorelevant solubility and liver microsomal stability were subjected to liquid-liquid extraction and HPLC-UV analysis. To 100 µL of sample, internal standard (2′-deoxyadenosine) was spiked at 10 µg/mL and 300 µL of 0.1 M NaOH was added. Extraction solvent (3 mL) of ethyl acetate-isopropyl alcohol (85:15, v/v) was added and vortex-mixed for 10 min. Samples were then centrifuged at 1160 g for 5 min and the supernatant was transferred and dried under N2 gas. […]

A short description of a further data set: Caco-2 permeability. The data set is classed as in vitro ADME. The settings on record: human, Caco-2; read-out: apparent permeability coefficient (Papp), A to B. Here is the method:
(§1) Caco-2 permeability assays were conducted following previously reported methods with 21-day maintenance on the Corning 24-well Transwell® (Fisher Scientific, Loughborough, UK)[48]. […] Both directions of apical-to-basolateral and basolateral-to-apical were tested. […] The experiments were conducted in triplicates.
(§2) Samples from Caco-2 permeability, in vitro determination of CordyTP formation and in vivo experiments were subjected to protein precipitation followed by LC-MS/MS analysis. To 50 µL of rat plasma sample, 150 µL of internal standard solution (1.67 µg/mL 2-chloroadenosine in methanol) was added. The samples were then vortex-mixed for 10 s and were centrifuged for 3 min at 17949 g. Supernatant (20 µL) was collected and diluted 10-fold with DDW before injection into the LC-MS/MS for analysis of cordycepin and 3′-deoxyinosine. For analysis of CordyTP, the supernatant was filtered using filter tubes mentioned above and injected without dilution. Tissue samples were homogenised using Bullet Blender Gold (Next Advance, Inc., Troy, NY) in methanol (1:3 w/v) and centrifuged for 3 min at 17949 g. The supernatant was filtered and injected for analysis of CordyTP or diluted 10-fold with DDW for analysis of cordycepin and 3′-deoxyinosine. The LC-MS/MS system was a API4000 QTrap (AB Sciex, Warrington, UK) equipped with HPLC setup of SCL10Avp controller, LC10ADvp pump and SILHTC autosampler (Shimadzu, Milton Keynes, UK). Three different methods were utilised for each compound and multiple reaction monitoring parameters of the MS/MS conditions are shown in Table 1. The HPLC conditions including stationary phases and specific mass spectrometry parameters are shown in Supplementary Information 2. The LC-MS/MS method for cordycepin was fully validated in terms of accuracy, precision, sensitivity, selectivity, linearity and sample storage stability in accordance with the Guidance for Industry, Bioanalytical Method Validation, (2018) published by the US FDA (refer to Supplementary Information 3 for validation procedures and results)[53].

Another data set has as its system Caco-2 cells. Briefly: Caco-2 permeability. The data set is classed as in vitro ADME. On the procedure:
as §1, §2
For orientation: Caco-2 cells form a polarised layer with tight junctions and transporters.

A further data set relates to RAW264.7 cells. Briefly: Repression of inflammatory gene expression in LPS-stimulated RAW264.7 cells (qPCR). The following applies: 20 µM, 1 h prior to LPS stimulation. The data set is classed as cell-based, mouse. On the procedure:
RAW 264.7 mouse macrophage cells were cultured in DMEM supplemented with 10% FBS. Prior to experiments, cells were washed with PBS and cells were maintained in DMEM with 0.5% FBS or 10% FBS for 24 h. LPS was added at 1 µg/mL, 1 h before compound treatment, when needed. When the cells were analysed for concentration levels of cordycepin, 3′-deoxyinosine and CordyTP, the cells were washed twice with PBS. The cells were then treated with methanol and mixed vigorously before the mixture was harvested. The mixture was filtered using filter tubes mentioned above and the filtrate was analysed by liquid chromatography coupled with tandem mass spectrometry (LC-MS/MS). For determination of relative mRNA levels, RNA was isolated from the lysates using an RNA isolation kit, following manufacturer’s protocol (Promega, Madison, WI, cat no. Z6012). RNA was reverse transcribed to cDNA using SuperScript™ III reverse transcriptase (Invitrogen, Carlsbad, CA). Quantitative polymerase chain reaction (qPCR), was performed with Qiagen Rotor-Gene Q qPCR machine (Qiagen, Hilden, Germany) using Promega SYBR Green GoTaq® qPCR master mix (Promega).
Figure 3 Repression effect on inflammatory gene expression. (a) NBTI or ITu treatment prior to cordycepin treatment suppresses effect of cordycepin. RAW264.7 cells were treated with 10 µM NBTI, 100 nM ITu or DMSO (Ctrl, control) 15 min prior to cordycepin treatment. The cells were stimulated with LPS 1 h after cordycepin treatment (mean ± SD, n = 3). **p < 0.01; ***p < 0.001 compared to DMSO treatment (labelled as Ctrl). (b) 3′-deoxyinosine exerts same repression effect as cordycepin, although to a lesser degree. RAW264.7 cells were treated with 20 µM cordycepin, 20 µM 3′-deoxyinosine (3DI) or DMSO (Ctrl, control) for 1 h prior to LPS stimulation (mean ± SD, n = 3). **p < 0.01; ***p < 0.001 compared to without compound treatment (labelled as LPS).
A general note: Quantitative PCR measures a nucleic acid by following its amplification.

One may read the fraction unbound as free concentration divided by total concentration. As a reminder, the Papp A→B is how fast a substance crosses the layer from the apical side.

Consider `Nc1ncnc2c1ncn2[C@@H]1O[C@H](CO)C[C@H]1O` [cordycepin, 3′-deoxyadenosine], for which the half-life at 10 µM in data set [1] was 25.8 ± 4 min. Besides, the fraction unbound at 1 h in data set [2] was greater than 0.8. For the same compound, in the data set “Caco-2 permeability”, the Papp A→B at 120 min, 200 µM was determined as 0.11 ± 0.01 ×10⁻⁶ cm/s. In addition, the “cordycepin remaining in donor chamber at 120 min” value was “remained stable” in the data set with Caco-2 cells (applied to apical side with pentostatin), “significantly degraded” in the data set on Caco-2 cells (applied to apical side without pentostatin) and “remained stable” in the data set on Caco-2 cells (applied to basolateral side without pentostatin). Besides, the permeation of cordycepin result with Caco-2 cells (cordycepin 200 µM without pentostatin, A to B and B to A) is on record as “not detected”. For the same compound, the “effect on expression of inflammatory genes” value in the data set with RAW264.7 cells is reported as “inhibitory effect”.
